Values quoted from earlier work as cited in US20120087963A1, “DISINFECTANT COMPOSITION COMPRISING A BIGUANIDE COMPOUND” (BIO TECHNICS LIMITED, priority 2009, published 2012).

System: bacteria
Conditions: typical, of the order of

For polyaminopropyl biguanide [PAPB], the Bactericidal concentration is given as about 10 mg/L.
